# Measurements as given in patent publication US20090023744A1, “COMBINATION THERAPY FOR DEPRESSION” (The General Hospital Corporation, priority 2007, published 2009).
# “Also recorded” adds a separate entry of the source.
# Columns and labels:
# [1] = tested on: major depressive disorder (MDD); assay: Clinical case report: treatment of recurrent MDD with buspirone and bupropion; assay type: in vivo, human; conditions: same patient remaining on bupropion 150 SR q.d. alone
# Excerpt: A person with a history of recurrent episodes of MDD presented with a recurrence of their MDD in the context of their having been off antidepressant medications. […] At the time of the initiation of this treatment combination, the patient reported depressed mood, irritability, decreased sleep and appetite, and fatigue, as well as reduced interest.
# 5-HT2C receptor [2] = biological target: T1, 5-HT2C receptor (Homo sapiens, UniProt P28335); conditions: reference [2]; cited from earlier work
# T1 sequence (P28335 33-458): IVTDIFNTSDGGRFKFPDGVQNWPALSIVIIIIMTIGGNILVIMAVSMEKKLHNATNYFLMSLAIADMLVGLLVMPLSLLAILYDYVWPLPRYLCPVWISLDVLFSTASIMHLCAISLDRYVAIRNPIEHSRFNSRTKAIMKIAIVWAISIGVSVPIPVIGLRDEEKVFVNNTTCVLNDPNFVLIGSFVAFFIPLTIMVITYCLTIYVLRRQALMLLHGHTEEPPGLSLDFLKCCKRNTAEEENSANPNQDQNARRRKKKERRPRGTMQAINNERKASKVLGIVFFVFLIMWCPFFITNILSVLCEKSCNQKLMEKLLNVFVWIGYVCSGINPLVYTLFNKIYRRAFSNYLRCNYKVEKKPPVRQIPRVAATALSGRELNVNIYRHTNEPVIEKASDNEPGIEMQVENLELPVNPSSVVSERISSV
# 5-HT2C receptor [3] = biological target: T1, 5-HT2C receptor; conditions: reference [2]; cited from earlier work; remark: listed apart in the source
insomnia after discontinuation of buspirone [1],SMILES,depressive symptoms after discontinuation of buspirone [1],5-HT2C receptor antagonist activity (5-HT2C receptor [2]),affinity for 5-HT2C receptors (5-HT2C receptor [3])
improvement of their insomnia,"CC(NC(C)(C)C)C(=O)c1cccc(Cl)c1 (racemic) [bupropion, (±)-1-(3-chlorophenyl)-2-[(1,1-dimethylethyl)amino]-1-propanone]",depressive symptoms quickly returned; also recorded: not sufficient to lead to antidepressant response,,
,"O=C1CC2(CCCC2)CC(=O)N1CCCCN1CCN(c2ncccn2)CC1 [buspirone, 8-[4-[4-(2-pyrimidinyl)-1-piperazinyl)butyl)-8-azaspiro[4,5]decane-7,9-dione]",,weak,low affinity
